Key:
[1] = target: T1, RibF^Sda (Streptomyces davaonensis, UniProt K4R340); assay: fluorescent ADP detection kinase assay, crude extract; format: biochemical; conditions: ATP co-substrate; crude extract of overexpressing C. glutamicum with native RibF background; 10 min
T1 construct: gene ribC1; overexpressed from pVWEx1 in C. glutamicum wild type; crude extract (host's native RibF also present)
T1 sequence (K4R340 1-319): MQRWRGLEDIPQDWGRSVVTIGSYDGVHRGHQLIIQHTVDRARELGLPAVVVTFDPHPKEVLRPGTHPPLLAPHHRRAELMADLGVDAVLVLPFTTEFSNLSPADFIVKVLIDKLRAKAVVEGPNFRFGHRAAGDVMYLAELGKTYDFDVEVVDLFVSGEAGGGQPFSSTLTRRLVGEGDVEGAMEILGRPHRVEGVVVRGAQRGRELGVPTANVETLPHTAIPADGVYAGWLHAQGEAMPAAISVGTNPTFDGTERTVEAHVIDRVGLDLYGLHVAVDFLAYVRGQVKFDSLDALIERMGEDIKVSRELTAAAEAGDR

[2] = target: T2, RibF^Cg (Corynebacterium glutamicum, UniProt Q8NP47); assay: as above; format: biochemical; conditions: ATP co-substrate; crude extract of overexpressing C. glutamicum; 10 min
T2 construct: gene Cgl1978; overexpressed from pVWEx1 in C. glutamicum wild type; crude extract
T2 sequence (Q8NP47 1-341): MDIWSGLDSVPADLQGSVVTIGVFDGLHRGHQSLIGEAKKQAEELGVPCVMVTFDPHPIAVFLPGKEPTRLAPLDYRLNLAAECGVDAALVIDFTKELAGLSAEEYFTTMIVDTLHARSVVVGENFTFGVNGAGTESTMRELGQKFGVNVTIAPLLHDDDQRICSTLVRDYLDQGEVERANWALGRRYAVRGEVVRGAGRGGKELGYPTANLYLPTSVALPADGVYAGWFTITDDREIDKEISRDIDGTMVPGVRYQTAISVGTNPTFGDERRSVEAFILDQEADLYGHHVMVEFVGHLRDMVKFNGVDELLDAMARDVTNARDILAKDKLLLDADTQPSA

Cc1cc2nc3c(=O)[nH]c(=O)nc-3n(C[C@H](O)[C@H](O)[C@H](O)CO)c2cc1C [riboflavin]
fluorescent ADP detection kinase assay, crude extract [1]: RibF^Sda also showed lower kinase activity in the presence of RF
fluorescent ADP detection kinase assay, crude extract [2]: overexpression of both ribF genes resulted in kinase activity when RF or RoF was added

Cc1cc2nc3c(=O)[nH]c(=O)nc-3n(C[C@H](O)[C@H](O)[C@H](O)CO)c2cc1N(C)C [roseoflavin]
fluorescent ADP detection kinase assay, crude extract [1]: activity of RibF^Sda was significantly lower in the presence of RoF
fluorescent ADP detection kinase assay, crude extract [2]: overexpression of both ribF genes resulted in kinase activity when RF or RoF was added

Source: PMC12541554, “Production of the Antimicrobial Roseoflavin With Genetically Engineered Corynebacterium glutamicum” (Microbial Biotechnology, 2025)
